Laboratory results as given in patent publication US5254546A, “Fused aryl substituted imidazole angiotensin II receptor inhibitors” (E. I. Du Pont de Nemours and Company, priority 1992, dated 1993).

Assays:
[1] = biological target: Angiotensin II Receptor; assay: AII receptor ligand-receptor binding assay (rat adrenal cortical microsomes, displacement of 3H-AII or 125I-AII); settings: Table 7, 1 hour, room temperature
Procedure: The hormone angiotensin II (AII) produces numerous biological responses (e.g. vasoconstriction) through stimulation of its receptors on cell membranes. For the purpose of identifying compounds such as AII antagonists which are capable of interacting with the AII receptor, a ligand-receptor binding assay was utilized for the initial screen. The assay was carried out according to the method described by [Glossmann et al., J. Biol. Chem., 249, 825 (1974)], but with some modifications. The reaction mixture contained rat adrenal cortical microsomes (source of AII receptor) in Tris buffer and 2 nM of ^3 H-AII or 0.05 nM ^125 I-AII with or without potential AII antagonist. This mixture was incubated for 1 hour at room temperature and the reaction was subsequently terminated by rapid filtration and rinsing through glass micro-fibre filter. Receptor-bound ^3 H-AII or ^125 I-AII trapped in filter was quantitated by scintillation counting. The inhibitory concentration (IC50) of potential AII antagonist which gives 50% displacement of the total specifically bound ^3 H-AII or ^125 I-AII is a measure of the affinity of such compound for the AII receptor.

[2] = tested on: awake rats made hypertensive by ligation of the left renal artery; assay: Antihypertensive effects in renal hypertensive rats (left renal artery ligation); format: in vivo, rat; settings: for Antihypertensive Effects in Renal Hypertensive Rats, Intravenous Activity: 3 mg/kg; for Antihypertensive Effects in Renal Hypertensive Rats, Oral Activity: 30 mg/kg
Procedure: Blood pressure levels after treatment are compared to pretreatment levels to determine the antihypertensive effects of the compounds which were tested.

[3] = tested on: effects of AII on the blood pressure of pithed rats; settings: cited from earlier work
[4] = tested on: mammals and man; settings: cited from earlier work
[5] = tested on: renal vasoconstrictor effect of indomethacin and meclofenamate in dogs; settings: cited from earlier work

| SMILES | IC50 [1] | Antihypertensive Effects in Renal Hypertensive Rats, Intravenous Activity [2] | Antihypertensive Effects in Renal Hypertensive Rats, Oral Activity [2] | other results |
| --- | --- | --- | --- | --- |
| CCCc1nc(-c2cccc3ccccc23)c(C=O)n1Cc1ccc(-c2ccccc2-c2nnn[nH]2)cc1 [Example 1, 4-(naphth-1-yl)-2-n-propyl-1-[(2'-(1H-tetrazol-5-yl)biphenyl-4-yl)methyl]imidazole-5-carboxaldehyde] | 21 nM | + (Significant decrease in blood pressure at 3.0 mg/kg or less) | + (Significant decrease in blood pressure at 30 mg/kg or less) | – |
| CCCc1nc(-c2cc3ccccc3s2)c(C=O)n1Cc1ccc(-c2ccccc2-c2nn[nH]n2)cc1 [Example 7] | 29 nM | NA (Not active at 3 mg/kg or 30 mg/kg dosage tested) | – | – |
| CCCc1nc(-c2ccc(F)c3ccccc23)c(C=O)n1Cc1ccc(-c2ccccc2-c2nn[nH]n2)cc1 [Example 8] | 170 nM | NA (Not active at 3 mg/kg or 30 mg/kg dosage tested) | – | – |
| CCCc1nc(-c2ccc3c4c(cccc24)CC3)c(C=O)n1Cc1ccc(-c2ccccc2-c2nn[nH]n2)cc1 [Example 9] | 490 nM | NA (Not active at 3 mg/kg or 30 mg/kg dosage tested) | – | – |
| CCCc1nc(-c2ccc3ccccc3c2)c(C=O)n1Cc1ccc(-c2ccccc2-c2nn[nH]n2)cc1 [Example 10] | 99 nM | NA (Not active at 3 mg/kg or 30 mg/kg dosage tested) | NA (Not active at 3 mg/kg or 30 mg/kg dosage tested) | – |
| CCCc1nc(-c2ccc3cc(OC)ccc3c2)c(C=O)n1Cc1ccc(-c2ccccc2-c2nn[nH]n2)cc1 [Example 11] | 160 nM | NA (Not active at 3 mg/kg or 30 mg/kg dosage tested) | – | – |
| CCCc1nc(-c2cc3ccccc3c3ccccc23)c(C=O)n1Cc1ccc(-c2ccccc2-c2nn[nH]n2)cc1 [Example 24] | 170 nM | + (Significant decrease in blood pressure at 3.0 mg/kg or less) | NA (Not active at 3 mg/kg or 30 mg/kg dosage tested) | – |
| CCCc1nc(-c2cc3ccccc3o2)c(C=O)n1Cc1ccc(-c2ccccc2-c2nn[nH]n2)cc1 [Example 41] | 110 nM | + (Significant decrease in blood pressure at 3.0 mg/kg or less) | + (Significant decrease in blood pressure at 30 mg/kg or less) | – |
| CCCc1nc(/C=C\c2cccc3ccccc23)c(C=O)n1Cc1ccc(-c2ccccc2-c2nn[nH]n2)cc1 [Example 95] | 13 nM | + (Significant decrease in blood pressure at 3.0 mg/kg or less) | + (Significant decrease in blood pressure at 30 mg/kg or less) | – |
| CCCc1nc(/C=C/c2cccc3ccccc23)c(C=O)n1Cc1ccc(-c2ccccc2-c2nn[nH]n2)cc1 [Example 96] | 560 nM | + (Significant decrease in blood pressure at 3.0 mg/kg or less) | – | – |
| CCCc1nc(/C=C\c2ccc3ccccc3c2)c(C=O)n1Cc1ccc(-c2ccccc2-c2nn[nH]n2)cc1 [Example 97] | 540 nM | + (Significant decrease in blood pressure at 3.0 mg/kg or less) | – | – |
| CNCC(=O)N[C@@H](CCCN=C(N)N)C(=O)N[C@H](C(=O)N[C@@H](Cc1ccc(O)cc1)C(=O)N[C@H](C(=O)N[C@@H](Cc1cnc[nH]1)C(=O)N1CCC[C@H]1C(=O)N[C@@H](C)C(=O)O)C(C)C)C(C)C [Saralasin, [Sar^1, Ala^8] AII] | – | – | – | antagonism of AII effects on blood pressure [3]: one of the most potent competitive antagonists of the actions of AII; oral effectiveness ([4]; oral doses): oral doses being ineffective; duration of pharmacological effects ([4]; parenteral administration): relatively short-lasting; lowering of arterial pressure ([4]; when the elevated pressure is dependent on circulating AII): lower arterial pressure in mammals and man; pressor effects ([4]; when the pressure is not sustained by AII): generally elicits pressor effects when the pressure is not sustained by AII; effect on renal vasoconstriction by NSAID [5]: inhibit the renal vasoconstrictor effect of indomethacin and meclofenamate in dogs |
| C[C@H](CS)C(=O)N1CCC[C@H]1C(=O)O [captopril] | – | – | – | effect on renal vasoconstriction by NSAID [5]: reverse the renal vasoconstrictor effect of indomethacin in dogs with non-hypotensive hemorrhage |
